Reference: patent publication US9957264B2 (Merck Sharp & Dohme Corp., priority 2013, dated 2018)

Assays:
[1] = molecular target: JAK1 (recombinant purified GST-tagged catalytic domain) (Homo sapiens (Human), UniProt P23458); test: Jak Biochemical HTRF Assay (JAK1); conditions: [ATP] 31.8 μM
Procedure, shortened: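 Read-out is the 665/615 nm time-resolved FRET ratio from Eu-pY20 antibody and streptavidin-Dylight 650 bound to phosphorylated biotin-peptide. Reactions ran 120 min at room temperature after ATP start. Inhibition normalized to untreated controls gave IC50 via 4-parameter fit.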

[2] = molecular target: JAK2 (recombinant purified GST-tagged catalytic domain) (Homo sapiens (Human), UniProt O60674); test: Jak Biochemical HTRF Assay (JAK2); conditions: [ATP] 8.5 μM
Chain of JAK2 (recombinant purified GST-tagged catalytic domain) (O60674 849-1124): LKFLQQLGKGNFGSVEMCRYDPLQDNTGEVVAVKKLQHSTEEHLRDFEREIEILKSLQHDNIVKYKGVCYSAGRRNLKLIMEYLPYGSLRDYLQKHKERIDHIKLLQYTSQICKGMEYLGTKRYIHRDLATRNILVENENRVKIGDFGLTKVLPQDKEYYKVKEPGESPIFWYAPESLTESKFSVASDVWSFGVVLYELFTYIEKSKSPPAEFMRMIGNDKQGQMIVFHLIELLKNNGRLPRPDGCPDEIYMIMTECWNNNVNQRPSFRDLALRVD

Chain of JAK1 (recombinant purified GST-tagged catalytic domain) (P23458 875-1153): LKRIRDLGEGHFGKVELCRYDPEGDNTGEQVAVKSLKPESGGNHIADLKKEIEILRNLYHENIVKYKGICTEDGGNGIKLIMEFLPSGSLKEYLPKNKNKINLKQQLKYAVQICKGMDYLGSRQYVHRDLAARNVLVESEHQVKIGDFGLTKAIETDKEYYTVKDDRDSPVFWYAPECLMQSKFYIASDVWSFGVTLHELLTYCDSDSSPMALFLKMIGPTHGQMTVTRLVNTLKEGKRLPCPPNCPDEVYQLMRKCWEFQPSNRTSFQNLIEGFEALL

SMILES | IC50 [1] [nM] | IC50 [2] [nM]
CC(C)NC(C)(C)c1ccc(Nc2nn([C@@]3(CC#N)CCCC[C@H]3F)c3cc[nH]c(=O)c23)cc1 [Example 5-175, [(1R,2R)-2-fluoro-1-{3-[(4-{1-methyl-1-[(1-methylethyl)amino]ethyl}phenyl)amino]-4-oxo-4,5-dihydro-1H-pyrazolo[4,3-c]pyridin-1-yl}cyclohexyl]acetonitrile] | 0.09 | 0.06
CC(C)S(=O)(=O)c1ccc(Nc2nn([C@]3(CC#N)CCCOC3)c3cc[nH]c(=O)c23)cc1 [Example 5-179, {(3S)-3-[3-({4-[(1-methylethyl)sulfonyl]phenyl}amino)-4-oxo-4,5-dihydro-1H-pyrazolo[4,3-c]pyridin-1-yl]tetrahydro-2H-pyran-3-yl}acetonitrile] | 0.08 | 0.26
CN(C(C)(C)C)S(=O)(=O)c1ccc(Nc2nn([C@]3(CC#N)CCCOC3)c3cc[nH]c(=O)c23)cc1 [Example 5-182, N-tert-butyl-4-({1-[(3S)-3-(cyanomethyl)tetrahydro-2H-pyran-3-yl]-4-oxo-4,5-dihydro-1H-pyrazolo[4,3-c]pyridin-3-yl}amino)-N-methylbenzenesulfonamide] | 0.25 | 0.57
CC(C)(C)S(=O)(=O)c1ccc(Nc2nn([C@]3(CC#N)CCCOC3)c3cc[nH]c(=O)c23)cc1 [Example 5-183, [(3S)-3-(3-{[4-(tert-butylsulfonyl)phenyl]amino}-4-oxo-4,5-dihydro-1H-pyrazolo[4,3-c]pyridin-1-yl)tetrahydro-2H-pyran-3-yl]acetonitrile] | 0.17 | 0.47
CC(C)(C)NS(=O)(=O)c1ccc(Nc2nn([C@]3(CC#N)CCCOC3)c3cc[nH]c(=O)c23)cc1 [Example 5-184, N-tert-butyl-4-({1-[(3S)-3-(cyanomethyl)tetrahydro-2H-pyran-3-yl]-4-oxo-4,5-dihydro-1H-pyrazolo[4,3-c]pyridin-3-yl}amino) benzenesulfonamide] | 0.2 | 0.6
CC(C)(C)OC(=O)CN1Cc2cc(Nc3nn([C@]4(CC#N)CCCOC4)c4cc[nH]c(=O)c34)ccc2S1(=O)=O [Example 5-185, tert-butyl [5-({1-[(3S)-3-(cyanomethyl)tetrahydro-2H-pyran-3-yl]-4-oxo-4,5-dihydro-1H-pyrazolo[4,3-c]pyridin-3-yl}amino)-1,1-dioxido-1,2-benzisothiazol-2(3H)-yl]acetate] | 0.08 | 1.5
N#CC[C@@]1(n2nc(Nc3ccc(S(=O)(=O)C4CCCC4)cc3)c3c(=O)[nH]ccc32)CCCOC1 [Example 5-191, [(3S)-3-(3-{[4-(cyclopentylsulfonyl)phenyl]amino}-4-oxo-4,5-dihydro-1H-pyrazolo[4,3-c]pyridin-1-yl)tetrahydro-2H-pyran-3-yl]acetonitrile] | 0.16 | 0.52
CC(C)C(C)(C)S(=O)(=O)c1ccc(Nc2nn([C@]3(CC#N)CCCOC3)c3cc[nH]c(=O)c23)cc1 [Example 5-192, {(3S)-3-[4-oxo-3-({4-[(1,1,2-trimethylpropyl)sulfonyl]phenyl}amino)-4,5-dihydro-1H-pyrazolo[4,3-c]pyridin-1-yl]tetrahydro-2H-pyran-3-yl}acetonitrile] | 0.17 | 0.3
N#CC[C@@]1(n2nc(Nc3ccc(S(=O)(=O)C4CCCCC4)cc3)c3c(=O)[nH]ccc32)CCCOC1 [Example 5-193, [(3S)-3-(3-{[4-(cyclohexylsulfonyl)phenyl]amino}-4-oxo-4,5-dihydro-1H-pyrazolo[4,3-c]pyridin-1-yl)tetrahydro-2H-pyran-3-yl]acetonitrile] | 0.42 | 0.66
CCC(C)(C)S(=O)(=O)c1ccc(Nc2nn([C@]3(CC#N)CCCOC3)c3cc[nH]c(=O)c23)cc1 [Example 5-196, {(3S)-3-[3-({4-[(1,1-dimethylpropyl)sulfonyl]phenyl}amino)-4-oxo-4,5-dihydro-1H-pyrazolo[4,3-c]pyridin-1-yl]tetrahydro-2H-pyran-3-yl}acetonitrile] | 0.15 | 0.33
N#CC[C@@]1(n2nc(Nc3ccc4c(c3)CN(C3CCCC3)C4=O)c3c(=O)[nH]ccc32)CCCOC1 [Example 5-197, [(3S)-3-{3-[(2-cyclopentyl-1-oxo-2,3-dihydro-1H-isoindol-5-yl)amino]-4-oxo-4,5-dihydro-1H-pyrazolo[4,3-c]pyridin-1-yl}tetrahydro-2H-pyran-3-yl]acetonitrile] | 0.13 | 1.13
CC1(C)CCCC1S(=O)(=O)c1ccc(Nc2nn([C@]3(CC#N)CCCOC3)c3cc[nH]c(=O)c23)cc1 (stereo partly drawn) [Example 5-202, {(3S)-3-[3-({4-[(2,2-dimethylcyclopentyl)sulfonyl]phenyl}amino)-4-oxo-4,5-dihydro-1H-pyrazolo[4,3-c]pyridin-1-yl]tetrahydro-2H-pyran-3-yl}acetonitrile] | 0.39 | 1.2
CC(C)(C)OC(=O)[C@@H]1CC[C@@](CC#N)(n2nc(Nc3ccc(S(=O)(=O)N4CCOCC4)cc3)c3c(=O)[nH]ccc32)CO1 [Example 5-203, (2S,5S)-tert-butyl 5-(cyanomethyl)-5-(3-((4-(morpholinosulfonyl)phenyl)amino)-4-oxo-4,5-dihydro-1H-pyrazolo[4,3-c]pyridin-1-yl)tetrahydro-2H-pyran-2-carboxylate] | 0.15 | 0.27
N#CC[C@@]1(n2nc(Nc3ccc(S(=O)(=O)N4CCOCC4)cc3)c3c(=O)[nH]ccc32)CCCOC1 [Example 5-204, [(3S)-3-(3-{[4-(morpholin-4-ylsulfonyl)phenyl]amino}-4-oxo-4,5-dihydro-1H-pyrazolo[4,3-c]pyridin-1-yl)tetrahydro-2H-pyran-3-yl]acetonitrile] | 0.29 | 0.48
CC(C)(C)OC(=O)[C@@H]1CC[C@@](CC#N)(n2nc(Nc3ccc4ncccc4c3)c3c(=O)[nH]ccc32)CO1 [Example 5-215, (2S,5S)-tert-butyl 5-(cyanomethyl)-5-(4-oxo-3-(quinolin-6-ylamino)-4,5-dihydro-1H-pyrazolo[4,3-c]pyridin-1-yl)tetrahydro-2H-pyran-2-carboxylate] | 0.07 | 0.63
CC(C)(C)OC(=O)[C@@H]1CC[C@@](CC#N)(n2nc(Nc3ccc4nc(C#N)ccc4c3)c3c(=O)[nH]ccc32)CO1 [Example 5-216, (2S,5S)-tert-butyl 5-(cyanomethyl)-5-(3-((2-cyanoquinolin-6-yl)amino)-4-oxo-4,5-dihydro-1H-pyrazolo[4,3-c]pyridin-1-yl)tetrahydro-2H-pyran-2-carboxylate] | 0.14 | 1.16
Cc1ccc2cc(Nc3nn([C@]4(CC#N)CC[C@@H](C(=O)OC(C)(C)C)OC4)c4cc[nH]c(=O)c34)ccc2n1 [Example 5-217, (2S,5S)-tert-butyl 5-(cyanomethyl)-5-(3-((2-methylquinolin-6-yl)amino)-4-oxo-4,5-dihydro-1H-pyrazolo[4,3-c]pyridin-1-yl)tetrahydro-2H-pyran-2-carboxylate] | 0.07 | 0.77
Cc1cc(C)n(-c2ccc(Nc3nn([C@]4(CC#N)CC[C@@H](C(=O)OC(C)(C)C)OC4)c4cc[nH]c(=O)c34)cc2)n1 [Example 5-218, (2S,5S)-tert-butyl 5-(cyanomethyl)-5-(3-((4-(3,5-dimethyl-1H-pyrazol-1-yl)phenyl)amino)-4-oxo-4,5-dihydro-1H-pyrazolo[4,3-c]pyridin-1-yl)tetrahydro-2H-pyran-2-carboxylate] | 0.16 | 0.73
Cc1cc(Nc2nn([C@]3(CC#N)CC[C@@H](C(=O)OC(C)(C)C)OC3)c3cc[nH]c(=O)c23)ccc1-n1cccn1 [Example 5-219, (2S,5S)-tert-butyl 5-(cyanomethyl)-5-(3-((3-methyl-4-(1H-pyrazol-1-yl)phenyl)amino)-4-oxo-4,5-dihydro-1H-pyrazolo [4,3-c]pyridin-1-yl) tetrahydro-2H-pyran-2-carboxylate] | 0.13 | 1.36
Cc1cc(Nc2nn([C@]3(CC#N)CC[C@@H](C(=O)OC(C)(C)C)OC3)c3cc[nH]c(=O)c23)ccc1C(=O)N1CCOC(C)(C)C1 [Example 5-220, (2S,5S)-tert-butyl 5-(cyanomethyl)-5-(3-((4-(2,2-dimethylmorpholine-4-carbonyl)-3-methylphenyl)amino)-4-oxo-4,5-dihydro-1H-pyrazolo[4,3-c]pyridin-1-yl)tetrahydro-2H-pyran-2-carboxylate] | 0.14 | 0.19
CC(C)(C)OC(=O)[C@@H]1CC[C@@](CC#N)(n2nc(Nc3cnc4ccccc4c3)c3c(=O)[nH]ccc32)CO1 [Example 5-221, (2S,5S)-tert-butyl 5-(cyanomethyl)-5-(4-oxo-3-(quinolin-3-ylamino)-4,5-dihydro-1H-pyrazolo[4,3-c]pyridin-1-yl)tetrahydro-2H-pyran-2-carboxylate] | 0.35 | 5.29
CN(C)c1ccc2cc(Nc3nn([C@]4(CC#N)CC[C@@H](C(=O)OC(C)(C)C)OC4)c4cc[nH]c(=O)c34)ccc2n1 [Example 5-222, (2S,5S)-tert-butyl 5-(cyanomethyl)-5-(3-((2-(dimethylamino)quinolin-6-yl)amino)-4-oxo-4,5-dihydro-1H-pyrazolo[4,3-c]pyridin-1-yl)tetrahydro-2H-pyran-2-carboxylate] | 0.13 | 0.64
CC(C)(C)OC(=O)[C@@H]1CC[C@@](CC#N)(n2nc(Nc3ccc4nc(C(N)=O)ccc4c3)c3c(=O)[nH]ccc32)CO1 [Example 5-223, (2S,5S)-tert-butyl 5-(3-((2-carbamoylquinolin-6-yl)amino)-4-oxo-4,5-dihydro-1H-pyrazolo[4,3-c]pyridin-1-yl)-5-(cyanomethyl)tetrahydro-2H-pyran-2-carboxylate] | 0.07 | 0.82
